Results from patent US8841413B2, “Antidiabetic compounds” (Cadila Healthcare Limited, priority 2006, dated 2014).

Assays:
DPP IV = DPP IV (Homo sapiens, UniProt P27487); test: Stability against DPP IV enzyme; format: in vitro ADME; settings: for % degradation in 24 h when incubated with DPP-IV enzyme: 2 μM, 37° C.; for half-life at 2 μM: DPP IV enzyme, pH 7.8, 37° C., read-out: half-life (t1/2) with DPP-IV enzyme
Summary of the method: (§1)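 Samples are acid-quenched with TFA/H2O at 10% (v/v) before chromatographic analysis. The mobile phase runs at 1 mL/min over a column conditioned in TFA/H2O, and the UV trace is recorded at 206 nm. Each peak is picked by hand and characterised by ESI mass spectrometry.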

[1] = test system: RIN5F (Rat Insulinoma) cells; test: In vitro glucose-dependent insulin secretion (RIN5F cell assay); format: cell-based; settings: 16.7 mM glucose load, mean ± S.D., n = 3
Protocol: After trypsinization, RIN5F cells were seeded at a concentration of 0.2×10^6·cells per well, in 12 well plates.
The supernatant was collected and the insulin amount was measured by ultra sensitive Rat insulin ELISA kit (Crystal Chem, Ill.). The protein was estimated in the supernatant using Bicinchoninic Acid kit, according to the manufacturer's protocol (Sigma Aldrich, Mo.). The total insulin content obtained in Pico-gram (pg) was divided with the total protein (μg) in order to normalize for differences in cell density between wells.

human glucagon receptor = molecular target: T1, human glucagon receptor (Homo sapiens, UniProt P47871); test: In vitro human glucagon antagonist activity (inhibition of cAMP production), CHO/human glucagon R cells; format: cell-based
T1 construct: The full-length cDNA was cloned in pcDNA3.1(Invitrogen); expressed in transfected cells
T1 sequence (P47871 26-477): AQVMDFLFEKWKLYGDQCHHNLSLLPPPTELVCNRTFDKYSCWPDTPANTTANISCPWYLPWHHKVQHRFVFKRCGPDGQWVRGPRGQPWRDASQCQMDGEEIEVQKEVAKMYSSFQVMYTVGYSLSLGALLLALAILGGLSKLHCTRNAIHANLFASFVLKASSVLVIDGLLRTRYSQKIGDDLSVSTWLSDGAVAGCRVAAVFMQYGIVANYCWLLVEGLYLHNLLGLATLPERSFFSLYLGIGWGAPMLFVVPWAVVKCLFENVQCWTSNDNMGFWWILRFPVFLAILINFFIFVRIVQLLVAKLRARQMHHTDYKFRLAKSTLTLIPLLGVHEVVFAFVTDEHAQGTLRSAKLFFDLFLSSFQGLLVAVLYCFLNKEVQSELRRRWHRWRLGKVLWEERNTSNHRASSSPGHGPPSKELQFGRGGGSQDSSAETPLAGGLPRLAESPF

[2] = Stability in human plasma; format: in vitro ADME; settings: for % degradation in 24 h when incubated with human plasma: 2 μM, 37° C.; for half-life at 2 μM: human, pooled human plasma, pH 7.8, 37° C., read-out: half-life (t1/2) in human plasma
Summary of the method: as §1

[3] = Stability against liver microsomes; format: in vitro ADME, human; settings: for % degradation in 24 h when incubated with liver microsomes: 2 μM, 37° C.; for half-life at 2 μM: human, human liver microsomes, pH 7.8, 37° C., read-out: half-life (t1/2) with liver microsomes
Summary of the method: as §1

[4] = Stability in simulated intestinal fluid; format: in vitro ADME; settings: 2 μM, 37° C., pH 7.5
Summary of the method: as §1

[5] = Stability in simulated gastric fluid; format: in vitro ADME; settings: 2 μM, 37° C., pH 1.5, pepsin
Summary of the method: as §1

[6] = 1 nM test compound (fourth concentration column, between 100 nM and 10 μM) with saturated concentration of glucagon peptide
[7] = 1 nM test compound with saturated concentration of glucagon peptide
[8] = 10 nM test compound with saturated concentration of glucagon peptide
[9] = 100 nM test compound with saturated concentration of glucagon peptide
[10] = 10 μM test compound with saturated concentration of glucagon peptide

Sequence of DPP IV (P27487 whole entry, species assumed): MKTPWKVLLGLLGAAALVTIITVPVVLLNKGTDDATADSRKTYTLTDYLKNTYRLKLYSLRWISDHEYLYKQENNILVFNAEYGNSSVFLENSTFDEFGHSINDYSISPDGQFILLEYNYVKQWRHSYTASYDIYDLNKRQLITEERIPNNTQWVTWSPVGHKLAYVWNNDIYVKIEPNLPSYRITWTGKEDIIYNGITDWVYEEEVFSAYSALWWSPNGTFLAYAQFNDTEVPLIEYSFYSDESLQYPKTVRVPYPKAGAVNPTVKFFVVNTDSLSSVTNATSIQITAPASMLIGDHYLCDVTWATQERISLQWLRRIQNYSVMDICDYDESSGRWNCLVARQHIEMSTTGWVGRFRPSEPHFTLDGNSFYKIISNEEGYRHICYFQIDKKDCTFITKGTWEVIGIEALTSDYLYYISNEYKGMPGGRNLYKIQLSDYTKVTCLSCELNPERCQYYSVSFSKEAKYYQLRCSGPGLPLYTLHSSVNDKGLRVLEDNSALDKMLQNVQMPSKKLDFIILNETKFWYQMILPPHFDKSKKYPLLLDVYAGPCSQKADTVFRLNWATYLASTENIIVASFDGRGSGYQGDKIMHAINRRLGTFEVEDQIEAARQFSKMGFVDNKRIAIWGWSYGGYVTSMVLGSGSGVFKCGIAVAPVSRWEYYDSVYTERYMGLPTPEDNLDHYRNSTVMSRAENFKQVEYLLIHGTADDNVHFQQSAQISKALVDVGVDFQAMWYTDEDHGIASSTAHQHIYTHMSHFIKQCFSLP

CCc1cc(OC)ccc1-c1ccc(CC(NC(=O)[C@H](CC(=O)O)NC(=O)[C@H](CO)NC(=O)[C@@H](NC(=O)C(C)(Cc2ccccc2F)NC(=O)[C@@H](NC(=O)CNC(=O)[C@H](CCC(N)=O)NC(=O)[C@H](CO)NC(=O)[C@@H](N)Cc2c[nH]cn2)[C@@H](C)O)[C@@H](C)O)C(=O)NC(Cc2ccc(-c3ccccc3C)cc2)C(N)=O)cc1 (single isomer, unassigned) [compound 21]
% degradation in 24 h when incubated with DPP-IV enzyme (DPP IV): 76%
half-life at 2 μM (DPP IV): 9 h
Insulin secretion ([1]; 0.1 nM test compd.): 12.3 ± 0.33 pg/µg/h
Insulin secretion ([1]; 1 nM test compd.): 14.1 ± 0.36 pg/µg/h
Insulin secretion ([1]; 10 nM test compd.): 28.0 ± 0.16 pg/µg/h
Human Glucagon receptor antagonistic activity, inhibition of cAMP production of Glucagon peptide (human glucagon receptor; [6]): 14 ± 0.02 pmol/ml/μg prt
Human Glucagon receptor antagonistic activity, inhibition of cAMP production of Glucagon peptide (human glucagon receptor; [7]): 19 ± 0.03 pmol/ml/μg prt
Human Glucagon receptor antagonistic activity, inhibition of cAMP production of Glucagon peptide (human glucagon receptor; [8]): 17 ± 0.08 pmol/ml/μg prt
Human Glucagon receptor antagonistic activity, inhibition of cAMP production of Glucagon peptide (human glucagon receptor; [9]): 15 ± 0.01 pmol/ml/μg prt
Human Glucagon receptor antagonistic activity, inhibition of cAMP production of Glucagon peptide (human glucagon receptor; [10]): 12 ± 0.11 pmol/ml/μg prt
% degradation in 24 h when incubated with human plasma [2]: 78%
half-life at 2 μM [2]: 8 h
% degradation in 24 h when incubated with liver microsomes [3]: 79%
half-life at 2 μM [3]: 1 h
% degradation in 24 h when incubated with simulated intestinal fluid [4]: 55%
half-life (t1/2) in simulated intestinal fluid [4]: (6) h
% degradation in 24 h when incubated with simulated gastric fluid [5]: 12%
half-life (t1/2) in simulated gastric fluid [5]: (8) h

CCc1cc(OC)ccc1-c1ccc(CC(NC(=O)[C@H](CC(=O)O)NC(=O)[C@H](CO)NC(=O)[C@@H](NC(=O)C(C)(Cc2ccccc2F)NC(=O)[C@@H](NC(=O)CNC(=O)[C@H](CCC(N)=O)NC(=O)[C@H](CO)NC(=O)[C@@H](N)Cc2c[nH]cn2)[C@@H](C)O)[C@@H](C)O)C(=O)NC(Cc2ccc(-c3ccccc3C)nc2)C(N)=O)cc1 (single isomer, unassigned) [compound 22]
% degradation in 24 h when incubated with DPP-IV enzyme (DPP IV): 75%
half-life at 2 μM (DPP IV): 9 h
Insulin secretion ([1]; 0.1 nM test compd.): 12.1 ± 0.42 pg/µg/h
Insulin secretion ([1]; 1 nM test compd.): 14.6 ± 0.41 pg/µg/h
Insulin secretion ([1]; 10 nM test compd.): 27.8 ± 0.46 pg/µg/h
Human Glucagon receptor antagonistic activity, inhibition of cAMP production of Glucagon peptide (human glucagon receptor; [6]): 18 ± 0.03 pmol/ml/μg prt
Human Glucagon receptor antagonistic activity, inhibition of cAMP production of Glucagon peptide (human glucagon receptor; [7]): 21 ± 0.11 pmol/ml/μg prt
Human Glucagon receptor antagonistic activity, inhibition of cAMP production of Glucagon peptide (human glucagon receptor; [8]): 19 ± 0.02 pmol/ml/μg prt
Human Glucagon receptor antagonistic activity, inhibition of cAMP production of Glucagon peptide (human glucagon receptor; [9]): 18 ± 0.07 pmol/ml/μg prt
Human Glucagon receptor antagonistic activity, inhibition of cAMP production of Glucagon peptide (human glucagon receptor; [10]): 16 ± 0.02 pmol/ml/μg prt
% degradation in 24 h when incubated with human plasma [2]: 77%
half-life at 2 μM [2]: 8 h
% degradation in 24 h when incubated with liver microsomes [3]: 81%
half-life at 2 μM [3]: 1 h
% degradation in 24 h when incubated with simulated intestinal fluid [4]: 45%
half-life (t1/2) in simulated intestinal fluid [4]: (6) h
% degradation in 24 h when incubated with simulated gastric fluid [5]: 14%
half-life (t1/2) in simulated gastric fluid [5]: (8) h

CCc1cc(OC)ccc1-c1ccc(CC(NC(=O)[C@H](CC(=O)O)NC(=O)[C@H](CO)NC(=O)[C@@H](NC(=O)C(C)(Cc2ccccc2F)NC(=O)[C@@H](NC(=O)CNC(=O)[C@H](CCC(N)=O)NC(=O)[C@H](CO)NC(=O)[C@@H](N)Cc2c[nH]cn2)[C@@H](C)O)[C@@H](C)O)C(=O)NC(Cc2ccc(-c3ccccc3F)cc2)C(N)=O)cc1 (single isomer, unassigned) [compound 23]
% degradation in 24 h when incubated with DPP-IV enzyme (DPP IV): 77%
half-life at 2 μM (DPP IV): 9 h
Insulin secretion ([1]; 0.1 nM test compd.): 11.9 ± 0.17 pg/µg/h
Insulin secretion ([1]; 1 nM test compd.): 14.2 ± 0.13 pg/µg/h
Insulin secretion ([1]; 10 nM test compd.): 27.6 ± 0.16 pg/µg/h
Human Glucagon receptor antagonistic activity, inhibition of cAMP production of Glucagon peptide (human glucagon receptor; [6]): 0 pmol/ml/μg prt
Human Glucagon receptor antagonistic activity, inhibition of cAMP production of Glucagon peptide (human glucagon receptor; [7]): 4 ± 0.05 pmol/ml/μg prt
Human Glucagon receptor antagonistic activity, inhibition of cAMP production of Glucagon peptide (human glucagon receptor; [8]): 2 ± 0.13 pmol/ml/μg prt
Human Glucagon receptor antagonistic activity, inhibition of cAMP production of Glucagon peptide (human glucagon receptor; [9]): 2 ± 0.12 pmol/ml/μg prt
Human Glucagon receptor antagonistic activity, inhibition of cAMP production of Glucagon peptide (human glucagon receptor; [10]): 0 pmol/ml/μg prt
% degradation in 24 h when incubated with human plasma [2]: 80%
half-life at 2 μM [2]: 8 h
% degradation in 24 h when incubated with liver microsomes [3]: 82%
half-life at 2 μM [3]: 1 h
% degradation in 24 h when incubated with simulated intestinal fluid [4]: 50%
half-life (t1/2) in simulated intestinal fluid [4]: (6) h
% degradation in 24 h when incubated with simulated gastric fluid [5]: 13%
half-life (t1/2) in simulated gastric fluid [5]: (8) h

CCc1cc(OC)ccc1-c1ccc(CC(NC(=O)[C@H](CC(=O)O)NC(=O)[C@H](CO)NC(=O)[C@@H](NC(=O)C(C)(Cc2ccccc2F)NC(=O)[C@@H](NC(=O)CNC(=O)[C@H](CCC(N)=O)NC(=O)[C@H](CO)NC(=O)[C@@H](N)Cc2c[nH]cn2)[C@@H](C)O)[C@@H](C)O)C(=O)NC(Cc2ccc(-c3ccccc3C(F)(F)F)cc2)C(N)=O)cc1 (single isomer, unassigned) [compound 24]
% degradation in 24 h when incubated with DPP-IV enzyme (DPP IV): 76%
half-life at 2 μM (DPP IV): 9 h
Insulin secretion ([1]; 0.1 nM test compd.): 12.3 ± 0.33 pg/µg/h
Insulin secretion ([1]; 1 nM test compd.): 14.8 ± 0.16 pg/µg/h
Insulin secretion ([1]; 10 nM test compd.): 28.1 ± 0.22 pg/µg/h
Human Glucagon receptor antagonistic activity, inhibition of cAMP production of Glucagon peptide (human glucagon receptor; [6]): 0 pmol/ml/μg prt
Human Glucagon receptor antagonistic activity, inhibition of cAMP production of Glucagon peptide (human glucagon receptor; [7]): 4 ± 0.09 pmol/ml/μg prt
Human Glucagon receptor antagonistic activity, inhibition of cAMP production of Glucagon peptide (human glucagon receptor; [8]): 2 ± 0.12 pmol/ml/μg prt
Human Glucagon receptor antagonistic activity, inhibition of cAMP production of Glucagon peptide (human glucagon receptor; [9]): 0 pmol/ml/μg prt
Human Glucagon receptor antagonistic activity, inhibition of cAMP production of Glucagon peptide (human glucagon receptor; [10]): 0 pmol/ml/μg prt
% degradation in 24 h when incubated with human plasma [2]: 78%
half-life at 2 μM [2]: 8 h
% degradation in 24 h when incubated with liver microsomes [3]: 80%
half-life at 2 μM [3]: 1 h
% degradation in 24 h when incubated with simulated intestinal fluid [4]: 43%
half-life (t1/2) in simulated intestinal fluid [4]: (6) h
% degradation in 24 h when incubated with simulated gastric fluid [5]: 14%
half-life (t1/2) in simulated gastric fluid [5]: (8) h

CCc1cc(OC)ccc1-c1ccc(CC(NC(=O)[C@H](CC(=O)O)NC(=O)[C@H](CO)NC(=O)[C@@H](NC(=O)C(C)(Cc2ccccc2F)NC(=O)[C@@H](NC(=O)CNC(=O)[C@H](CCC(N)=O)NC(=O)[C@H](C)NC(=O)[C@@H](N)Cc2c[nH]cn2)[C@@H](C)O)[C@@H](C)O)C(=O)NC(Cc2ccc(-c3ccccc3C)cc2)C(N)=O)cc1 (single isomer, unassigned) [compound 25]
% degradation in 24 h when incubated with DPP-IV enzyme (DPP IV): 74%
half-life at 2 μM (DPP IV): 9 h
Insulin secretion ([1]; 0.1 nM test compd.): 12.4 ± 0.22 pg/µg/h
Insulin secretion ([1]; 1 nM test compd.): 15.2 ± 0.32 pg/µg/h
Insulin secretion ([1]; 10 nM test compd.): 29.6 ± 0.50 pg/µg/h
Human Glucagon receptor antagonistic activity, inhibition of cAMP production of Glucagon peptide (human glucagon receptor; [6]): 8 ± 0.12 pmol/ml/μg prt
Human Glucagon receptor antagonistic activity, inhibition of cAMP production of Glucagon peptide (human glucagon receptor; [7]): 18 ± 0.12 pmol/ml/μg prt
Human Glucagon receptor antagonistic activity, inhibition of cAMP production of Glucagon peptide (human glucagon receptor; [8]): 16 ± 0.11 pmol/ml/μg prt
Human Glucagon receptor antagonistic activity, inhibition of cAMP production of Glucagon peptide (human glucagon receptor; [9]): 12 ± 0.13 pmol/ml/μg prt
Human Glucagon receptor antagonistic activity, inhibition of cAMP production of Glucagon peptide (human glucagon receptor; [10]): 6 ± 0.18 pmol/ml/μg prt
% degradation in 24 h when incubated with human plasma [2]: 75%
half-life at 2 μM [2]: 8 h
% degradation in 24 h when incubated with liver microsomes [3]: 83%
half-life at 2 μM [3]: 1 h
% degradation in 24 h when incubated with simulated intestinal fluid [4]: 46%
half-life (t1/2) in simulated intestinal fluid [4]: (6) h
% degradation in 24 h when incubated with simulated gastric fluid [5]: 12%
half-life (t1/2) in simulated gastric fluid [5]: (8) h
